The values that follow come from ChEMBL document CHEMBL4007384, “Synthesis and optimization of furano[3,2-d]pyrimidines as selective spleen tyrosine kinase (Syk) inhibitors” (Bioorg Med Chem Lett, 2016).

In test [1] the target is Platelet-derived growth factor receptor alpha (Homo sapiens, UniProt P16234). As to the kind of experiment: Inhibition of PDGFRA (unknown origin) after 60 mins by TR-FRET assay. On the technique in general: Time-resolved FRET reads energy transfer from a long-lived donor to a nearby acceptor.
Platelet-derived growth factor receptor alpha, sequence (P16234 whole entry): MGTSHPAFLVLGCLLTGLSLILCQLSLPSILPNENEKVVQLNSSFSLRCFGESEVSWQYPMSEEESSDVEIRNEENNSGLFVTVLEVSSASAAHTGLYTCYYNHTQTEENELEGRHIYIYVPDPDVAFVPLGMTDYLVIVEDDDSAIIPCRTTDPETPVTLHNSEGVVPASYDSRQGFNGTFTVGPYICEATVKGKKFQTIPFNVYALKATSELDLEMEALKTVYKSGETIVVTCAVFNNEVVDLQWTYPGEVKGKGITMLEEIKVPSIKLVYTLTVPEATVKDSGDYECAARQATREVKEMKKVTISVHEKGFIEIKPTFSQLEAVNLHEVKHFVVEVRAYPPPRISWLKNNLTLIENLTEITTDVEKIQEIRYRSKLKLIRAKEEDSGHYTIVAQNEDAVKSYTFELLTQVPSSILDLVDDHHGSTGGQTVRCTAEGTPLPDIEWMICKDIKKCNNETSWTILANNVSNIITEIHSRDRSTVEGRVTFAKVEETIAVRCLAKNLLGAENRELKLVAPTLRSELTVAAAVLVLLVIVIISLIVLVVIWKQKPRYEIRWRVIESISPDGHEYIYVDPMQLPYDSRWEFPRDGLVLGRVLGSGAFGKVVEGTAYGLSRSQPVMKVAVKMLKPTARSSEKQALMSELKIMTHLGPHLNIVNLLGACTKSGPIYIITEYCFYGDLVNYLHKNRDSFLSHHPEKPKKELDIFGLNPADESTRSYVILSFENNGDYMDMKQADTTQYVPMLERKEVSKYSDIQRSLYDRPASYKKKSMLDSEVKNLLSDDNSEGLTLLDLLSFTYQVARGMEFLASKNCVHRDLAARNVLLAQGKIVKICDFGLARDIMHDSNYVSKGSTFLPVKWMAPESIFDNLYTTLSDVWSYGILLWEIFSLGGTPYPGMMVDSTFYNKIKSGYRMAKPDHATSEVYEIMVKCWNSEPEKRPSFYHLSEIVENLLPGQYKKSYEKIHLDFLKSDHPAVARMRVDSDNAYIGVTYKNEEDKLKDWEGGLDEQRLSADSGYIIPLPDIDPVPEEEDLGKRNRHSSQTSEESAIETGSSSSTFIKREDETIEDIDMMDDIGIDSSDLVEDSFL
Test [2] has as its target T1, Inhibitor of nuclear factor kappa-B kinase subunit epsilon (Homo sapiens, UniProt Q14164).
T1 sequence (Q14164 whole entry): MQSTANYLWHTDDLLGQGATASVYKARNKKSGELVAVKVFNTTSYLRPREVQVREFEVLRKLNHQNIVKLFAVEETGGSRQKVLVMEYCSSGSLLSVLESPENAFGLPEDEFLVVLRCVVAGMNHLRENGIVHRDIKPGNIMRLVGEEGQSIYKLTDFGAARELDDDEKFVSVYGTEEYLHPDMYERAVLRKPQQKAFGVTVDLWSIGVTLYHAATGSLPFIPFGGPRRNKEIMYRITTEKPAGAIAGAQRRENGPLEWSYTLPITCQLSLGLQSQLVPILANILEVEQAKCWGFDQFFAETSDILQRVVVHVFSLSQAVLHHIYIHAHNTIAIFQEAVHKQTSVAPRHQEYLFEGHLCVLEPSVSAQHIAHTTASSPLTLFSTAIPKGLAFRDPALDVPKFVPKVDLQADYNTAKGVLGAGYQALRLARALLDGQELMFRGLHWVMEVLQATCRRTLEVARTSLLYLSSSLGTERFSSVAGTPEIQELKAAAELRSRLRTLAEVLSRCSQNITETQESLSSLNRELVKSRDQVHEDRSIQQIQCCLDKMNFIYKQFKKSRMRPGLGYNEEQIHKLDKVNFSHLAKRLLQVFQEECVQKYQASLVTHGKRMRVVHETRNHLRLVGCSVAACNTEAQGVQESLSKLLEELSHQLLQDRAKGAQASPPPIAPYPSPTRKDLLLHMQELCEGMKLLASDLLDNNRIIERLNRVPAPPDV
As to the kind of experiment: Inhibition of IKKE (unknown origin) after 60 mins by TR-FRET assay.

The target of test [3] is Protein kinase C theta type (Homo sapiens, UniProt Q04759). Briefly: Inhibition of PKCtheta (unknown origin) after 60 mins by TR-FRET assay.
Protein kinase C theta type, sequence (Q04759 whole entry): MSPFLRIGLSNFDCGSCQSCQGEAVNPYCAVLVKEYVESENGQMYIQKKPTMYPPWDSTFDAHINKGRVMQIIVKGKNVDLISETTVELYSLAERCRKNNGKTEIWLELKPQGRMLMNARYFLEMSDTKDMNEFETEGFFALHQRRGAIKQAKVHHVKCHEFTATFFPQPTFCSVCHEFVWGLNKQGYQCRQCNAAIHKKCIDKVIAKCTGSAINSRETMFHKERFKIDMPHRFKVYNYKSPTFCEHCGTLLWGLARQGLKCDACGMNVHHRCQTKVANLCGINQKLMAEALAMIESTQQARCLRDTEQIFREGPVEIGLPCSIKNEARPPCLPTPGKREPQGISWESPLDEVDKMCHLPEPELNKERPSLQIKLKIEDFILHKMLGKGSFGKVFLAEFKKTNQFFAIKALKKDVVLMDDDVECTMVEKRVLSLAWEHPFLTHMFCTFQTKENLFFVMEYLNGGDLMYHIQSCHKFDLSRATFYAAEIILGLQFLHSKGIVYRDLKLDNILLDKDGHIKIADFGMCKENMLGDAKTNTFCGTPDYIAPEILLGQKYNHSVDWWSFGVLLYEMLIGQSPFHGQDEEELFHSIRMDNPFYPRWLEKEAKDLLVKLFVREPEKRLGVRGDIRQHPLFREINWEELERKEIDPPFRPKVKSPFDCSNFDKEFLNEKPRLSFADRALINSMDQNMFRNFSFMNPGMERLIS
The target in test [4] is T2, Serine/threonine-protein kinase Nek2 (Homo sapiens, UniProt P51955).
T2 sequence (P51955 whole entry): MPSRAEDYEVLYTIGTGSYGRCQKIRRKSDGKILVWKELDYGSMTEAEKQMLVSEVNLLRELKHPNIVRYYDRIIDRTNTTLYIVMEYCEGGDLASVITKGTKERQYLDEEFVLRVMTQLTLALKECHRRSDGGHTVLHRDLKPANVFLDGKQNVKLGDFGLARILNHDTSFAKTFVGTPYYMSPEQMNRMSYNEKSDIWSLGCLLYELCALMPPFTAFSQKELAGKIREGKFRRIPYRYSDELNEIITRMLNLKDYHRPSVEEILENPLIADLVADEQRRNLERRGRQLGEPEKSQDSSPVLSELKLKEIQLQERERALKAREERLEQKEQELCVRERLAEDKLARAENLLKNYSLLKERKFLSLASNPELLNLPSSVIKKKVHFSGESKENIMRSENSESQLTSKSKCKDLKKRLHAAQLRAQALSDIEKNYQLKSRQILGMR
As to the kind of experiment: Inhibition of NEK2 (unknown origin) after 60 mins by TR-FRET assay.

A further test has as its target Insulin receptor (Homo sapiens, UniProt P06213). As to the kind of experiment: Inhibition of INSR (unknown origin) after 60 mins by TR-FRET assay.
The target in test [5] is Tyrosine-protein kinase JAK2 (Homo sapiens, UniProt O60674). As to the kind of experiment: Inhibition of JAK2 (unknown origin) after 60 mins by TR-FRET assay.
Test [6] addresses Tyrosine-protein kinase Lck (Homo sapiens, UniProt P06239). Briefly: Inhibition of Lck (unknown origin) after 60 mins by TR-FRET assay.
Test [7] is described as follows: Inhibition of PKA (unknown origin) after 60 mins by TR-FRET assay.
The target of test [8] is Dual specificity mitogen-activated protein kinase kinase 2 (Homo sapiens, UniProt P36507). As to the kind of experiment: Inhibition of MEK2 (unknown origin) after 60 mins by TR-FRET assay.
The target of test [9] is Tyrosine-protein kinase Fyn (Homo sapiens, UniProt P06241). Briefly: Inhibition of Fyn (unknown origin) after 60 mins by TR-FRET assay.
Tyrosine-protein kinase Fyn, sequence (P06241 whole entry): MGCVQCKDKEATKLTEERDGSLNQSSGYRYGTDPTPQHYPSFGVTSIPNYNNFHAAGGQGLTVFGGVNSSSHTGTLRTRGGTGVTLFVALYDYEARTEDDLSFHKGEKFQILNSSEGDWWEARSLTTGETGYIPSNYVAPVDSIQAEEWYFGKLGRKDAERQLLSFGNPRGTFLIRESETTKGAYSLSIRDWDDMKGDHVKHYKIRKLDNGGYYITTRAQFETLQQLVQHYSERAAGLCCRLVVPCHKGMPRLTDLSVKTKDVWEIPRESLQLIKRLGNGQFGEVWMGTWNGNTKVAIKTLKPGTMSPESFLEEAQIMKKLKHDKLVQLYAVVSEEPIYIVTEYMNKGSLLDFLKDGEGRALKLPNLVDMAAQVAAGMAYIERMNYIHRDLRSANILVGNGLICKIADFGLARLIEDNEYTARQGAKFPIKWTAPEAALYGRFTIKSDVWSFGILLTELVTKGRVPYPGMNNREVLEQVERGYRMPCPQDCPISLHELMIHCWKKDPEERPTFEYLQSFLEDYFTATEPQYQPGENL
The target in test [10] is Cyclin-dependent kinase 7 (Homo sapiens, UniProt P50613). As to the kind of experiment: Inhibition of CDK7 (unknown origin) after 60 mins by TR-FRET assay.
In test [11] the target is Glycogen synthase kinase-3 beta (Homo sapiens, UniProt P49841). Briefly: Inhibition of GSK3B (unknown origin) after 60 mins by TR-FRET assay.
For test [12], the target named is NT-3 growth factor receptor (Homo sapiens, UniProt Q16288). Briefly: Inhibition of TrkC (unknown origin) after 60 mins by TR-FRET assay.
NT-3 growth factor receptor, sequence (Q16288 whole entry): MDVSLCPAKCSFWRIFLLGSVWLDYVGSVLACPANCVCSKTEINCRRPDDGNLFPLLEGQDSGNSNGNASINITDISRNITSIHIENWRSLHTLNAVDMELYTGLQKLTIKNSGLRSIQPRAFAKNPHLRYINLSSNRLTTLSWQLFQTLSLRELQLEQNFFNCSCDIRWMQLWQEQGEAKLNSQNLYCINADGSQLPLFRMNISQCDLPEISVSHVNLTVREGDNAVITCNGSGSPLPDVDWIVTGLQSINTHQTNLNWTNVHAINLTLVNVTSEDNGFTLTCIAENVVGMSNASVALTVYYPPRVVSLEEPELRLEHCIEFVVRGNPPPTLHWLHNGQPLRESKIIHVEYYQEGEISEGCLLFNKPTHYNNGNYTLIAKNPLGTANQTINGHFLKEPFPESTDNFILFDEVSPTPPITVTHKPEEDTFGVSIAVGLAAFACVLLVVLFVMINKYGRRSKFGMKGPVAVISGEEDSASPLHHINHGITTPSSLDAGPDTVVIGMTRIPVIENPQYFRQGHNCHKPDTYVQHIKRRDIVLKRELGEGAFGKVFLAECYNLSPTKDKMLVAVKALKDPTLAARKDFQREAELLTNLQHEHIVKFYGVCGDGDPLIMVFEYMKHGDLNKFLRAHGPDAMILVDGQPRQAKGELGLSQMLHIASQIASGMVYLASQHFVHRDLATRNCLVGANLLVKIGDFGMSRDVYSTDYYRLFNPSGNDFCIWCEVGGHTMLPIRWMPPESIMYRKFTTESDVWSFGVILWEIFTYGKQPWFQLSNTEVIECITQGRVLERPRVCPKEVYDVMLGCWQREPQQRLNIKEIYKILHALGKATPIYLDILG
In the next test the target is Wee1-like protein kinase (Homo sapiens, UniProt P30291). As to the kind of experiment: Inhibition of Wee1 (unknown origin) after 60 mins by TR-FRET assay.
Wee1-like protein kinase, sequence (P30291 whole entry): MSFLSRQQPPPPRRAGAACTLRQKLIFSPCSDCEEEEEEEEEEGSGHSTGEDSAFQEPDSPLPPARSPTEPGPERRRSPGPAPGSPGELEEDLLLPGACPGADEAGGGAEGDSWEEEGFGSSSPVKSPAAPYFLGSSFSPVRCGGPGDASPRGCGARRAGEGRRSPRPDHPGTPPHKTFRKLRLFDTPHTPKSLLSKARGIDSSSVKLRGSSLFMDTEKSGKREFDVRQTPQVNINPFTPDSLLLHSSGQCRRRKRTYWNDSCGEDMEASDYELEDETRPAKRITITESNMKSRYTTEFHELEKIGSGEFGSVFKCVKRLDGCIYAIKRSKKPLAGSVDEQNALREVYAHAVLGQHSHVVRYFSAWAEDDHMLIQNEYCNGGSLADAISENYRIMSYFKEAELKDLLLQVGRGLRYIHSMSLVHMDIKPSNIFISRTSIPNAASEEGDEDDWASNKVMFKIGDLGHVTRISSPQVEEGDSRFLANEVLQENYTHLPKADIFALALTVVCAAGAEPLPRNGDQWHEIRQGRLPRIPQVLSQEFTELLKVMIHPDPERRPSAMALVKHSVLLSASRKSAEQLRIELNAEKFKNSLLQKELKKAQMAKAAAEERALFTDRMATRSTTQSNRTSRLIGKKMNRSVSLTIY
The target in test [13] is Tyrosine-protein kinase SYK (Homo sapiens, UniProt P43405).
Description: Inhibition of Syk (unknown origin) after 60 mins by TR-FRET assay
A further test has as its target Aurora kinase B (Homo sapiens, UniProt Q96GD4). Briefly: Inhibition of AURKB (unknown origin) after 60 mins by TR-FRET assay.
Test [14] addresses AMP-activated protein kinase, AMPK. As to the kind of experiment: Inhibition of AMPK (unknown origin) after 60 mins by TR-FRET assay. On the set-up: species or system Homo sapiens.
For test [15], the target named is Casein kinase I isoform alpha (Homo sapiens, UniProt P48729). As to the kind of experiment: Inhibition of CK1alpha1 (unknown origin) after 60 mins by TR-FRET assay.
Casein kinase I isoform alpha, sequence (P48729 whole entry, canonical isoform): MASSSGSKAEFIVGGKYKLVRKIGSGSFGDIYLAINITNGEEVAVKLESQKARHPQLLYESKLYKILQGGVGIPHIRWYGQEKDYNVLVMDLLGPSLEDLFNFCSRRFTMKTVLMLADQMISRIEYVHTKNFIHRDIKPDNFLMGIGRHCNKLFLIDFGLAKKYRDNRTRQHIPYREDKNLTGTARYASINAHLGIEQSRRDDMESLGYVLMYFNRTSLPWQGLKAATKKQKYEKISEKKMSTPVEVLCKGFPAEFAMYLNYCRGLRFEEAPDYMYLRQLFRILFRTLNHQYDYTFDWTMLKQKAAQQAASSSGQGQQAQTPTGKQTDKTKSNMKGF
The target of test [16] is Vascular endothelial growth factor receptor 1 (Homo sapiens, UniProt P17948). As to the kind of experiment: Inhibition of Flt1(unknown origin) after 60 mins by TR-FRET assay.

Aurora kinase B, sequence (Q96GD4 whole entry): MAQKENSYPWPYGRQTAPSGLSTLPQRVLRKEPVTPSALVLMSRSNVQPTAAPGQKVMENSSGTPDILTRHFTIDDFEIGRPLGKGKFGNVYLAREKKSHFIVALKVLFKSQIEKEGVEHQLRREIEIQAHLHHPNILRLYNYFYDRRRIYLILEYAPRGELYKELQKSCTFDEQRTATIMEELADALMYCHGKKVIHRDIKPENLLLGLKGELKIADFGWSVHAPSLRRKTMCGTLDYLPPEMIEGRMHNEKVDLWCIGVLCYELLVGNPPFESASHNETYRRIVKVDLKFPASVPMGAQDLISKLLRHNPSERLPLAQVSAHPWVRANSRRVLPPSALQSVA
Tyrosine-protein kinase Lck, sequence (P06239 whole entry): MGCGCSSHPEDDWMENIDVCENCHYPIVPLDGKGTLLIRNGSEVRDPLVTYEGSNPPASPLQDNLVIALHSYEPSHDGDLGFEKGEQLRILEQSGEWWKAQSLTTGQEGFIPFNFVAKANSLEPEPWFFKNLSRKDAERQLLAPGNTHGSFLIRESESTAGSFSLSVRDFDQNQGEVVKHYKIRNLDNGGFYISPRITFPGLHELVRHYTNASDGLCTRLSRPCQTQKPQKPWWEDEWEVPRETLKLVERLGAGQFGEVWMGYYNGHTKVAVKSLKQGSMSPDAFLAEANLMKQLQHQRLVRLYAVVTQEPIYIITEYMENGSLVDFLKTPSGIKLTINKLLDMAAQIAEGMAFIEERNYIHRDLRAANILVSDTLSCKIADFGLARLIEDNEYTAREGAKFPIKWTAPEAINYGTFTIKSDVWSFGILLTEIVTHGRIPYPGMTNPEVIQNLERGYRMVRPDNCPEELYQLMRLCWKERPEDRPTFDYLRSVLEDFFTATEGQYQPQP

What is called IC50 is the concentration that inhibits the measured activity by half. For `FC(F)(F)CNc1nc(Nc2ccc(N3CCOCC3)c(Cl)c2)nc2ccoc12`, the IC50 in test [1] was over 10 µM; in test [2], over 10 µM; in [3], over 10 µM; in [4], over 10 µM; at Insulin receptor, 3.48 µM; in [5], 2320 nM. The IC50 in test [6] was 3.7 µM; in test [7], over 10 µM; in test [8] it was over 10 µM; in test [9], 1510 nM; in [10], over 10 µM; in [11], over 10 µM. Besides, the IC50 was over 10 µM in [12]; over 10 µM on Wee1-like protein kinase; 69 nM in [13]; over 10 µM against Aurora kinase B; over 10 µM in test [14]; over 10 µM in [15]. In addition, in test [16], the IC50 was over 10 µM.

As for `FC(F)(F)CNc1nc(Nc2ccc3cn[nH]c3c2)nc2ccoc12`, the IC50 in test [1] is over 10 µM; in test [2], over 10 µM; in [4] it was over 10 µM; in test [6], 7.79 µM; in test [7], over 10 µM; in test [8], over 10 µM. Further, the IC50 was over 10 µM in [10]; over 10 µM in test [11]; over 10 µM in test [12]; over 10 µM against Wee1-like protein kinase; 97 nM in test [13]; over 10 µM against Aurora kinase B. Further, the IC50 in test [14] and in test [16] was over 10 µM in each case.

As to `Cc1n[nH]c2cc(Nc3nc(NC4CC4)c4occc4n3)ccc12`, the IC50 in [1] was over 10 µM; in test [2] it was over 10 µM; in test [3], over 10 µM; in test [4] it was over 10 µM; on Insulin receptor it was over 10 µM; in test [5] it was 4170 nM. The IC50 was over 10 µM in test [7]; over 10 µM in [8]; 5960 nM in [9]; over 10 µM in test [10]; over 10 µM in test [11]; over 10 µM in test [12]. The IC50 on Wee1-like protein kinase was over 10 µM; at Aurora kinase B, over 10 µM; in [14], over 10 µM; in [15] it was 7.54 µM; in test [16], over 10 µM.

Take `CC1(C)OCC(=O)Nc2cc(Nc3nc(NCC(F)(F)F)c4occc4n3)ccc21`: the IC50 is 5.59 µM in [1]; 3.43 µM in [2]; over 10 µM in test [3]; over 10 µM in [4]; 2.13 µM against Insulin receptor; 236 nM in test [5]. The IC50 in test [6] is 0.699 µM; in [7], over 10 µM; in test [8], over 10 µM; in [9] it was 201 nM; in [10] it was over 10 µM; in test [11] it was over 10 µM. Besides, the IC50 in test [12] is 7.7 µM; on Wee1-like protein kinase, 9.88 µM; in [13] it was 9 nM; against Aurora kinase B, over 10 µM; in test [14], over 10 µM; in [15], over 10 µM. In test [16], this compound showed an IC50 of 9.13 µM.
